Results reported in patent publication US10988445B2 (AstraZeneca AB, priority 2015, dated 2021).

System: human TH17 cells
Experiment: Inhibition of IL-17 release from human TH17 cells
Assay type: cell-based
Details: isolated human TH17 cells, 4 days culture, IL-17A by HTRF; for IC50: Homo sapiens, 96 h, read-out: pIC50 IL-17 release (converted)
From the text: Inhibition of IL-17 Release from Human TH17 Cells (IL-17 Release)
This test is designed to screen compounds for their inhibitory effect on the release of IL-17 from isolated and cultured human TH17 cells.
Peripheral blood mononuclear cells (PBMC) were isolated from heparin treated human whole blood fromhealthy donors by density gradient centrifugation. TH17 cells (CD4+CXCR3-CCR6+) were enriched using a human TH17 Cell Enrichment Kit (Stemcell Technologies) according to the manufacturer's protocol. […] On day 4 supernatants were collected and IL-17A was measured using a Human IL-17 HTRF Assay kit (Cisbio Bioassays) according to the manufacturer's protocol. […] Results

CCS(=O)(=O)c1ccc2c(c1)CN(C(=O)CC1(O)CC1)C2C(=O)Nc1ccc(C(O)(C(F)(F)F)C(F)(F)F)cc1 (stereo not shown) [Example 107, 5-(Ethylsulfonyl)-N-[4-(1,1,1,3,3,3-hexafluoro-2-hydroxypropan-2-yl)phenyl]-2-[(1-hydroxycyclopropyl)acetyl]-2,3-dihydro-1H-isoindole-1-carboxamide]
IC50: 50.1 nM

COCCS(=O)(=O)c1ccc2c(c1)CN(C=O)C2C(=O)Nc1ccc(C(O)(C(F)(F)F)C(F)(F)F)cc1 (stereo not shown) [Example 701, 2-Formyl-N-[4-(1,1,1,3,3,3-hexafluoro-2-hydroxypropan-2-yl)phenyl]-5-[(2-methoxyethyl)sulfonyl]-2,3-dihydro-1H-isoindole-1-carboxamide]
IC50: 15.8 nM

CCS(=O)(=O)c1ccc2c(c1)CN(C(=O)CC1(N(C)C)CC1)C2C(=O)Nc1ccc(C(O)(C(F)(F)F)C(F)(F)F)cc1 (stereo not shown) [Example 115, 2-{[1-(Dimethylamino)cyclopropyl]acetyl}-5-(ethylsulfonyl)-N-[4-(1,1,1,3,3,3-hexafluoro-2-hydroxypropan-2-yl)phenyl]-2,3-dihydro-1H-isoindole-1-carboxamide]
IC50: 63.1 nM

CS(=O)(=O)c1ccc2c(c1)CN(C(=O)Cc1ccccc1)C2C(=O)Nc1ccc(C(O)(C(F)(F)F)C(F)(F)F)cc1 (stereo not shown) [Example 402, N-[4-(1,1,1,3,3,3-Hexafluoro-2-hydroxypropan-2-yl)phenyl]-5-(methylsulfonyl)-2-(phenylacetyl)-2,3-dihydro-1H-isoindole-1-carboxamide]
IC50: 12.6 nM

CCS(=O)(=O)c1ccc2c(c1)CN(C(=O)C1CCCO1)C2C(=O)Nc1ccc(C(O)(C(F)(F)F)C(F)(F)F)cc1 (stereo not shown) [Example 114, 5-(Ethylsulfonyl)-N-[4-(1,1,1,3,3,3-hexafluoro-2-hydroxypropan-2-yl)phenyl]-2-(tetrahydrofuran-2-ylcarbonyl)-2,3-dihydro-1H-isoindole-1-carboxamide]
IC50: 31.6 nM

C[C@H](F)CC(=O)N1Cc2cc(S(C)(=O)=O)ccc2C1C(=O)Nc1ccc(C(O)(C(F)(F)F)C(F)(F)F)cc1 (stereo partly drawn) [Example 413, 2-[(3S)-3-Fluorobutanoyl]-N-[4-(1,1,1,3,3,3-hexafluoro-2-hydroxypropan-2-yl)phenyl]-5-(methylsulfonyl)-2,3-dihydro-1H-isoindole-1-carboxamide]
IC50: 31.6 nM

CS(=O)(=O)c1ccc2c(c1)CN(C(=O)CCF)C2C(=O)Nc1ccc(C(O)(C(F)(F)F)C(F)(F)F)cc1 (stereo not shown) [Example 415, 2-(3-Fluoropropanoyl)-N-[4-(1,1,1,3,3,3-hexafluoro-2-hydroxypropan-2-yl)phenyl]-5-(methylsulfonyl)-2,3-dihydro-1H-isoindole-1-carboxamide]
IC50: 31.6 nM

COC(=O)N1Cc2cc(S(=O)(=O)CC3(C#N)CC3)ccc2C1C(=O)Nc1ccc(C(O)(C(F)(F)F)C(F)(F)F)cc1 (stereo not shown) [Example 902, Methyl 5-{[(1-cyanocyclopropyl)methyl]sulfonyl}-1-{[4-(1,1,1,3,3,3-hexafluoro-2-hydroxypropan-2-yl)phenyl]carbamoyl}-1,3-dihydro-2H-isoindole-2-carboxylate]
IC50: 50.1 nM

CNS(=O)(=O)c1ccc2c(c1)CN(C(=O)OC)C2C(=O)Nc1ccc(C(O)(C(F)(F)F)C(F)(F)F)cc1 (stereo not shown) [Example 304, Methyl 1-{[4-(1,1,1,3,3,3-hexafluoro-2-hydroxypropan-2-yl)phenyl]carbamoyl}-5-(methylsulfamoyl)-1,3-dihydro-2H-isoindole-2-carboxylate]
IC50: 12.6 nM

CNS(=O)(=O)c1ccc2c(c1)CN(C(=O)[C@@H]1CCCO1)C2C(=O)Nc1ccc(C(O)(C(F)(F)F)C(F)(F)F)cc1 (stereo partly drawn) [Example 311, N-[4-(1,1,1,3,3,3-Hexafluoro-2-hydroxypropan-2-yl)phenyl]-5-(methylsulfamoyl)-2-[(2S)-tetrahydrofuran-2-ylcarbonyl]-2,3-dihydro-1H-isoindole-1-carboxamide]
IC50: 31.6 nM

COC1(C(=O)N2Cc3cc(S(=O)(=O)CC4CC4)ccc3C2C(=O)Nc2ccc(C(O)(C(F)(F)F)C(F)(F)F)cc2)CC1 (stereo not shown) [Example 212, 5-[(Cyclopropylmethyl)sulfonyl]-N-[4-(1,1,1,3,3,3-hexafluoro-2-hydroxypropan-2-yl)phenyl]-2-[(1-methoxycyclopropyl)carbonyl]-2,3-dihydro-1H-isoindole-1-carboxamide]
IC50: 15.8 nM

COCCS(=O)(=O)c1ccc2c(c1)CN(C(=O)COC)C2C(=O)Nc1ccc(C(O)(C(F)(F)F)C(F)(F)F)cc1 (stereo not shown) [Example 706, N-[4-(1,1,1,3,3,3-Hexafluoro-2-hydroxypropan-2-yl)phenyl]-2-(methoxyacetyl)-5-[(2-methoxyethyl)sulfonyl]-2,3-dihydro-1H-isoindole-1-carboxamide]
IC50: 50.1 nM

CS(=O)(=O)c1ccc2c(c1)CN(C(=O)NC1CC1)C2C(=O)Nc1ccc(C(O)(C(F)(F)F)C(F)(F)F)cc1 (stereo not shown) [Example 456, N^2—Cyclopropyl-N^1-[4-(1,1,1,3,3,3-hexafluoro-2-hydroxypropan-2-yl)phenyl]-5-(methylsulfonyl)-1,3-dihydro-2H-isoindole-1,2-dicarboxamide]
IC50: 12.6 nM

CC[C@@H](O)C(=O)N1Cc2cc(S(=O)(=O)NC)ccc2C1C(=O)Nc1ccc(C(O)(C(F)(F)F)C(F)(F)F)cc1 (single isomer, unassigned) [Example 303, isomer 2]
pIC50 IL-17 release (listed as 303, isomer 2): 7.5

O=C(Nc1ccc(C(O)(C(F)(F)F)C(F)(F)F)cc1)C1c2ccc(S(=O)(=O)CC3(O)CC3)cc2CN1C(=O)CO (stereo not shown) [Example 1103, N-[4-(1,1,1,3,3,3-Hexafluoro-2-hydroxypropan-2-yl)phenyl]-2-(hydroxyacetyl)-5-{[(1-hydroxycyclopropyl)methyl]sulfonyl}-2,3-dihydro-1H-isoindole-1-carboxamide]
IC50: 501 nM

CC(CO)C(=O)N1Cc2cc(S(C)(=O)=O)ccc2C1C(=O)Nc1ccc(C(O)(C(F)(F)F)C(F)(F)F)cc1 (stereo not shown) [Example 425, N-[4-(1,1,1,3,3,3-Hexafluoro-2-hydroxypropan-2-yl)phenyl]-2-(3-hydroxy-2-methylpropanoyl)-5-(methylsulfonyl)-2,3-dihydro-1H-isoindole-1-carboxamide]
IC50: 79.4 nM

O=C(Nc1ccc(C(O)(C(F)(F)F)C(F)(F)F)cc1)C1c2ccc(S(=O)(=O)CC3CC3)cc2CN1C(=O)C(F)(F)C1CC1 (stereo not shown) [Example 214, 2-[Cyclopropyl(difluoro)acetyl]-5-[(cyclopropylmethyl)sulfonyl]-N-[4-(1,1,1,3,3,3-hexafluoro-2-hydroxypropan-2-yl)phenyl]-2,3-dihydro-1H-isoindole-1-carboxamide]
IC50: 10 nM

CC(C)(O)CC(=O)N1Cc2cc(S(C)(=O)=O)ccc2C1C(=O)Nc1ccc(C(O)(C(F)(F)F)C(F)(F)F)cc1 (stereo not shown) [Example 421, N-[4-(1,1,1,3,3,3-Hexafluoro-2-hydroxypropan-2-yl)phenyl]-2-(3-hydroxy-3-methylbutanoyl)-5-(methylsulfonyl)-2,3-dihydro-1H-isoindole-1-carboxamide]
IC50: 100 nM

COCCS(=O)(=O)c1ccc2c(c1)CN(C(=O)C1(OC)CC1)C2C(=O)Nc1ccc(C(O)(C(F)(F)F)C(F)(F)F)cc1 (stereo not shown) [Example 703, N-[4-(1,1,1,3,3,3-hexafluoro-2-hydroxypropan-2-yl)phenyl]-2-[(1-methoxycyclopropyl)carbonyl]-5-[(2-methoxyethyl)sulfonyl]-2,3-dihydro-1H-isoindole-1-carboxamide]
IC50: 25.1 nM

NC(C(=O)N1Cc2cc(S(=O)(=O)CC3CC3)ccc2C1C(=O)Nc1ccc(C(O)(C(F)(F)F)C(F)(F)F)cc1)C1CC1 (stereo not shown) [Example 211, 2-[Amino(cyclopropyl)acetyl]-5-[(cyclopropylmethyl)sulfonyl]-N-[4-(1,1,1,3,3,3-hexafluoro-2-hydroxypropan-2-yl)phenyl]-2,3-dihydro-1H-isoindole-1-carboxamide]
IC50: 200 nM

CS(=O)(=O)c1ccc2c(c1)CN(C=O)C2C(=O)Nc1ccc(C(O)(C(F)(F)F)C(F)(F)F)cc1F (stereo not shown) [Example 442]
IC50: 50.1 nM

CC(CF)C(=O)N1Cc2cc(S(C)(=O)=O)ccc2C1C(=O)Nc1ccc(C(O)(C(F)(F)F)C(F)(F)F)cc1 (stereo not shown) [Example 408, 2-(3-Fluoro-2-methylpropanoyl)-N-[4-(1,1,1,3,3,3-hexafluoro-2-hydroxypropan-2-yl)phenyl]-5-(methylsulfonyl)-2,3-dihydro-1H-isoindole-1-carboxamide]
IC50: 12.6 nM

CC(C)(O)CC(=O)N1Cc2cc(S(=O)(=O)CC3CC3)ccc2C1C(=O)Nc1ccc(C(O)(C(F)(F)F)C(F)(F)F)cc1 (stereo not shown) [Example 207, 5-[(Cyclopropylmethyl)sulfonyl]-N-[4-(1,1,1,3,3,3-hexafluoro-2-hydroxypropan-2-yl)phenyl]-2-(3-hydroxy-3-methylbutanoyl)-2,3-dihydro-1H-isoindole-1-carboxamide]
IC50: 39.8 nM

N#CC1(C(=O)N2Cc3cc(S(=O)(=O)CC4CC4)ccc3C2C(=O)Nc2ccc(C(O)(C(F)(F)F)C(F)(F)F)cc2)CC1 (stereo not shown) [Example 209, 2-[(1-Cyanocyclopropyl)carbonyl]-5-[(cyclopropylmethyl)sulfonyl]-N-[4-(1,1,1,3,3,3-hexafluoro-2-hydroxypropan-2-yl)phenyl]-2,3-dihydro-1H-isoindole-1-carboxamide]
IC50: 25.1 nM

COC1(C(=O)N2Cc3cc(S(C)(=O)=O)ccc3C2C(=O)Nc2ccc(C(O)(C(F)(F)F)C(F)(F)F)cc2F)CC1 (stereo not shown) [Example 441, N-[2-Fluoro-4-(1,1,1,3,3,3-hexafluoro-2-hydroxypropan-2-yl)phenyl]-2-[(1-methoxycyclopropyl)carbonyl]-5-(methylsulfonyl)-2,3-dihydro-1H-isoindole-1-carboxamide]
IC50: 25.1 nM
